Assay results reported in article PMC11504387, “Synthesis and Biological Activity Assessment of 2-Styrylbenzothiazoles as Potential Multifunctional Therapeutic Agents” (Antioxidants, 2024).
Marks after values point to notes of the source that are not given here.

What was measured:
[1] = DPPH radical scavenging activity; format: biochemical; conditions: mean ± SD; for DPPH Inhibition %: 1 mg/mL
Method: For all the compounds, 0.750 mL of a DMSO-MeOH solution mixed with 1.5 mL of DPPH solution (0.004%) in MeOH was analysed. The samples were kept in the dark at room temperature for 30 min and then analysed with a spectrophotometer by reading the absorbance at 517 nm (lambda max of the absorption spectrum of the DPPH radical). Equation (5) was used to obtain the percentage inhibition (%) of the radical: DPPH radical-scavenging capacity (%) = [1 − (A1 − A2)/A0] × 100%(5) where A2 is the blank (MeOH), and A1 and A0 are, respectively, the recorded absorbances of the sample and control (0.750 MeOH and 1.5 mL DPPH solution), directly proportional to the concentration of residual DPPH. An initial screening was performed by testing all compounds at a concentration of 1 mg/mL (Trolox® was used as the standard); subsequently, compounds showing >90% radical inhibition were further tested to calculate their IC50 value (expressed in µg/mL). Ferulic acid was used as positive control. A linear regression was performed to calculate the sample concentration able to eliminate 50% of DPPH free radicals.

ORAC assay = format: biochemical; conditions: Trolox equivalents; mean ± SD
Method: The ORAC assay was performed based on the previously modified Hong procedure. The sodium salt of fluorescein (85 nM) was used as a target for free radical attack with 2,2′-azobis(2-amidinopropane) dichloride (AAPH) as a peroxyl radical generator in the final assay mixture (total volume of 0.2 mL). The test involves a calibration curve of Trolox (standard control) with different concentrations (40 to 240 μM). The compounds tested were first dissolved in DMSO:MeOH and then diluted in phosphate buffer solution pH 7.4. Fluorescence measurements were performed at 37 °C and recorded at 5-min intervals up to 30 min after the addition of AAPH. ORAC values were calculated as the difference in areas under the fluorescein quenching curves between the blank and the sample and were expressed as µmol Trolox equivalents (TE) per gram of dried sample.

[2] = UV spectrophotometric analysis of compounds in solution; format: physicochemical; conditions: for ʎmax: 10 µg/mL solution, DMSO diluted in MeOH; for Ɛ (molar extinction coefficient): at ʎmax, Lambert–Beer equation
Method: The synthesized compounds were solubilised in DMSO and diluted in MeOH, and the absorbance of the 10 µg/mL solution was measured between 290–400 nm with a UV-Vis spectrophotometer (SHIMADZU UV-2600 240 V, 1 cm quartz cell at 1 nm intervals). The absorbance at wavelength λ is related to the transmittance T(λ) via the Equation (1): A(λ) = −Log[T(λ)](1) where T(λ) is the fraction of incident irradiance transmitted by the sample. […]
The molar extinction coefficient was calculated with the absorbance recorded at the ʎmax applying the Lambert–Beer equation.

[3] = test system: human melanoma Colo38 cells; experiment: Cell growth inhibition assay, Colo38; format: cell-based; conditions: for IC50: Homo sapiens, 24 h incubation, mean ± SD; for SI (selectivity index): IC50 HaCat / IC50 Colo38
Method: Cell growth inhibition analyses were performed on human melanoma Colo38 cells and skin HaCat keratinocytes. Human melanoma Colo38 cells were kindly given by Dr. Patrizio Giacomini (Laboratory of Immunology, Regina Elena Institute, Rome, Italy). HaCat cells were obtained from Istituto Zooprofilattico Sperimentale della Lombardia e dell’Emilia-Romagna, Brescia, Italy. Cells were seeded at 40,000 cells/mL and 25,000 cells/mL, respectively. Colo38 cells were maintained in RPMI 1640, supplemented with 10% foetal bovine serum (FBS), penicillin (100 Units/mL), and streptomycin (100 µg/mL). HaCat cells were maintained in DMEM, supplemented with 10% fatal bovine serum (FBS), penicillin (100 Units/mL), streptomycin (100 µg/mL) and glutamine (2 mM); the incubation was performed at 37 °C in a 5% CO2 atmosphere. Compounds were dissolved in DMSO to obtain 50 mM stock solutions and diluted before cell treatment in MeOH. The tested compounds were added at serial dilutions to the cell cultures (from 0.1 to 100 µM) and incubated for 24 h further. Cells were then harvested, suspended in physiological solution, and counted with a Z2 Coulter Counter (Coulter Electronics, Hialeah, FL, USA). The number of cells/mL and the IC50 values were determined when untreated cells were in the log phase of cell growth. Samples of vehicles and untreated cells were included in each plate. Cisplatin was used as positive control for the HaCat cells, while N1-(4-arylidene)-1H-(2-OH-4-N(Et)2-phenyl)-[d]imidazole-2-carbohydrazide was used as positive control for the Colo38 cell line.

PMNL = experiment: ROS production in PMA-stimulated PMNL; format: cell-based, human; conditions: 10 µM; for ROS Production (% of Control): mean ± SD
Method: After 10 min at 37 °C, PMA (0.1 μM) was added. The fluorescence emission at 530 nm was measured after excitation at 485 nm in a thermally controlled (37 °C) NOVOstar microplate reader (BMG Lab technologies GmbH, Offenburg, Germany). […] ROS generation was induced by phorbol-12-myristate-13-acetate (PMA), a widely recognized agent for stimulating ROS production in neutrophils and enhancing endogenous superoxide formation. Diphenyleneiodonium (DPI, 10 µM), a NADPH oxidase inhibitor, served as a positive control. Through this assay, we could assess the potential interaction of our compounds with intracellular ROS production and their capacity to act as radical scavengers within a relevant cellular context. Furthermore, the outcomes provided additional insights into their inhibitory mechanism and helped to determine whether they act directly or non-specifically, as there is evidence that an impact on the ROS levels in PMNL could be translated to modulation of 5-LO activity in the cellular environment. […] With those data in hand, together with 5-LO inhibition assay outcomes, a direct inhibition of the enzyme stands as the best fitting option regarding the mechanism of action of compounds BZTst4 and BZTst6. […] This phenomenon was not further explored because such investigation was beyond the scope of this work.

| Structure (SMILES) | ʎmax [2] [nm] | Ɛ (molar extinction coefficient) [2] | IC50 [3] [µM] | DPPH IC50 (sample concentration able to scavenge 50% of the DPPH radical) ([1]; values in brackets) [µg/mL] | DPPH Inhibition % [1] | ORAC (ORAC assay) | SI (selectivity index) [3] | Effect on ROS production (in words) (PMNL) | ROS Production (% of Control) (PMNL) | Lowering of ROS production (PMNL) [%] |
| --- | --- | --- | --- | --- | --- | --- | --- | --- | --- | --- |
| C(=C\c1nc2ccccc2s1)/c1ccccc1 [BZTst1, (E)-2-styrylbenzo[d]thiazole] | 335.0 | 34,075.83 dm^3 mol^−1 cm^−1 | 85.6 ± 2.76 |  | <LOQ ^b | <LOQ ^b | >1.17 | do not display any significant interference | 124.78 ± 17.88 % of control |  |
| Oc1ccc(/C=C/c2nc3ccccc3s2)cc1 [BZTst2, (E)-4-(2-(benzo[d]thiazol-2-yl)vinyl)phenol] | 354.4 | 30,835.44 dm^3 mol^−1 cm^−1 | 79.8 ± 4.7 |  | 26.70 ± 0.83% | 11,614.64 ± 1184.06 µmolTE/g | 1.07 | unexpected rise in the ROS level | >150% ^a % of control |  |
| COc1ccc(/C=C/c2nc3ccccc3s2)cc1 [BZTst3, (E)-2-(4-methoxystyryl)benzo[d]thiazole] | 351.0 | 35,125.63 dm^3 mol^−1 cm^−1 | > 100 |  | <LOQ ^b | 1077.84 ± 98.52 µmolTE/g |  | do not display any significant interference | 108.70 ± 12.15 % of control |  |
| COc1ccc(/C=C/c2nc3ccccc3s2)cc1O [BZTst5, (E)-5-(2-(benzo[d]thiazol-2-yl)vinyl)-2-methoxyphenol] | 358.0 | 22,513.37 dm^3 mol^−1 cm^−1 | > 100 |  | 46.88 ± 0.60% | <LOQ ^b | <1 | do not display any significant interference | 99.62 ± 4.14 % of control |  |

Stronger by IC50 [3], values ahead:

| ʎmax [2] [nm] | Ɛ (molar extinction coefficient) [2] | IC50 [3] [µM] | DPPH IC50 (sample concentration able to scavenge 50% of the DPPH radical) ([1]; values in brackets) [µg/mL] | Structure (SMILES) | DPPH Inhibition % [1] | ORAC (ORAC assay) | SI (selectivity index) [3] | Effect on ROS production (in words) (PMNL) | ROS Production (% of Control) (PMNL) | Lowering of ROS production (PMNL) [%] |
| --- | --- | --- | --- | --- | --- | --- | --- | --- | --- | --- |
| 361.2 | 16,871.66 dm^3 mol^−1 cm^−1 | 71.5 ± 14.2 |  | COc1cc(/C=C/c2nc3ccccc3s2)ccc1O [BZTst6, (E)-4-(2-(benzo[d]thiazol-2-yl)vinyl)-2-methoxyphenol] | 18.86 ± 0.11 ^c % | 19,027.54 ± 46.67 µmolTE/g | >1.40 |  | 62.50 ± 5.62 % of control | < 50 |
| 363.3 | 22,070.71 dm^3 mol^−1 cm^−1 | 58.1 ± 12.1 | 10.46 ± 0.27 | Oc1ccc(/C=C/c2nc3ccccc3s2)cc1O [BZTst4, (E)-4-(2-(benzo[d]thiazol-2-yl)vinyl)benzene-1,2-diol] | 88.54 ± 0.47% | <LOQ ^b | 1.38 |  | 53.81 ± 16.30 % of control | < 50 |
